# Values of other authors, collected in US8815898B2, “6,7-disubstituted-sioquinoline derivatives and their use” (Montisera Ltd, priority 2010, dated 2014).
smiles,measurement,setting,value
c1ccc2c(c1)CCNC2 [TIQ],hydroxylated (C4 of the isoquinoline backbone) derivative in the urine,"most abundant metabolite in urine, 4-hydroxy derivative of the parent",2.7%
same,excreted in urine unchanged,share excreted in urine unchanged,76%
same,exit the brain unchanged,share of compound leaving the brain unchanged,90.4%
